According to patent US5965560A, “Substituted piperazines and piperidines as central nervous system agents” (priority 1997, dated 1999):
Counter-ions that a name gives are not always drawn.

Legend:
[1] = molecular target: T1, human D4 dopamine receptor (DA D4) (Homo sapiens, UniProt P21917); assay: inhibition of radioligand binding to the human D4 dopamine receptor
T1 sequence (P21917 1-419): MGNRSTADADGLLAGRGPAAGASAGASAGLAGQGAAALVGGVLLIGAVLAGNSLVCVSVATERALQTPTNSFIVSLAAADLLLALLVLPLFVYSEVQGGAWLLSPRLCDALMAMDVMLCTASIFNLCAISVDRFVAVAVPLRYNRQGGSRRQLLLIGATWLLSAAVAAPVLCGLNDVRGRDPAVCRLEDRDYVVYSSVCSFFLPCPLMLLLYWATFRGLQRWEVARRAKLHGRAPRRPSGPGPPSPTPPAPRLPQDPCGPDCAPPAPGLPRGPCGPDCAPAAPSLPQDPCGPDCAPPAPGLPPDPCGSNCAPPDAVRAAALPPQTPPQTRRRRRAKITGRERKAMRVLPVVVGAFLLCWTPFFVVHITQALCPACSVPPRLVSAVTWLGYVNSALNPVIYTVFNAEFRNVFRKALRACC
Description: Compounds were tested for their ability to bind to dopamine receptors as measured by their inhibition of [^3 H]spiperone binding to the human D2, D3 receptors in a receptor assay described by MacKenzie R. G., VanLeeuwen D., Pugsley T. A., et al., "Characterization of the human dopamine D3 receptor expressed in transfected cell lines." Eur. J. Pharmacol.-Mol. Pharmacol., 1994;266:79-85; for the human D4 dopamine receptor in a receptor assay by Pugsley T. A., Davis M. D., Akunne H. C., et al., "CI-1007, a dopamine partial agonist and potential antipsychotic agent. I. Neurochemical Effects." J. Pharmacol. Exp. Ther., 1995;274:898-911; and for ability to block the action of an agonist in a [^3 H]thymidine incorporation assay described by Lajiness N. E., Chio C. L., Huff R. M., "D2 dopamine receptor stimulation of mitogenesis in transfected Chinese hamster ovary cells: relationship to dopamine stimulation of tyrosine phosphorylations." J. Pharmacol. Exp. Ther., 1993;267:1573-81. This test determines the agonist/antagonist character of a compound by measuring [^3 H]thymidine update in Chinese hamster ovary (CHO) pro-5 cells expressing the DA D4 receptor. Agonists, such as quinpirole, promote cell growth and subsequent [^3 H]thymidine incorporation, while antagonists block the action of agonists. […] The above test methods are incorporated herein by reference.

[2] = molecular target: human D2 receptor (DA D2) (Homo sapiens, UniProt P14416); assay: inhibition of [^3 H]spiperone binding to the human D2 receptor; settings: human D2, [^3 H]spiperone
[3] = molecular target: human D3 receptor (DA D3) (Homo sapiens, UniProt P35462); assay: inhibition of [^3 H]spiperone binding to the human D3 receptor; settings: human D3, [^3 H]spiperone
DA D4 receptor = settings: D4 versus D2; Van Tol et al., Nature 1991; cited from earlier work
[4] = clozapine, background section; cited from earlier work

Sequence of human D3 receptor (DA D3) (P35462 whole entry): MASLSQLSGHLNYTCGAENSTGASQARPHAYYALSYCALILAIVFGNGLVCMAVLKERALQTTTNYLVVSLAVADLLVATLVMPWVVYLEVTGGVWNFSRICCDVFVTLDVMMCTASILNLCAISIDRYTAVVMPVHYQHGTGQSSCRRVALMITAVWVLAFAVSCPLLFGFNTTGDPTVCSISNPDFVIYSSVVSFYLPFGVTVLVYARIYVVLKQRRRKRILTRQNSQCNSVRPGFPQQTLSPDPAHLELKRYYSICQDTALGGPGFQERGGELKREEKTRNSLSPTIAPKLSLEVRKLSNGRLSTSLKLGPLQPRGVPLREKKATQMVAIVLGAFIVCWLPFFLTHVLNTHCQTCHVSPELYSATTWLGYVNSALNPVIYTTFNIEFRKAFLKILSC
Sequence of human D2 receptor (DA D2) (P14416 whole entry): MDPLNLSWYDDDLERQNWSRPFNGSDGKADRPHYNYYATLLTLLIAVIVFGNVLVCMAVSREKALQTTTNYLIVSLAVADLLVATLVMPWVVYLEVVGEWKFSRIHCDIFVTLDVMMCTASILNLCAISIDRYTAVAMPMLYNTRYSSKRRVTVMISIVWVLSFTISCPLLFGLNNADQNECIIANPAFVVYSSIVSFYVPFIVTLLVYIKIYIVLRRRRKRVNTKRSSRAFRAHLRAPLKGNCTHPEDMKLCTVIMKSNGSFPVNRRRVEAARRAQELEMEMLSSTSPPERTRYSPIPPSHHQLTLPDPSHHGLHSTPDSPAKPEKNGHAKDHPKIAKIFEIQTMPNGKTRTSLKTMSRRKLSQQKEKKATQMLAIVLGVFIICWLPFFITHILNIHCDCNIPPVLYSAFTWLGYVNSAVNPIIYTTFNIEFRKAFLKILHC

Ki [1] | Ki [2] | Ki [3] | Compound | affinity for the DA D4 receptor relative to D2 (DA D4 receptor) | extrapyramidal side effects and tardive dyskinesia [4]
0.0045 µM | 3.29 µM | 2.03 µM | COc1cc(CN2CCN(c3ccc(C)c(Cl)c3)CC2)cc(OC)c1OC [Example 20, 1-(3-Chloro-4-methylphenyl)-4-(3,4,5-trimethoxybenzyl)-piperazine, monohydrochloride] | – | –
0.0127 µM | 2.9 µM | 2.65 µM | COc1cccc(CN2CCN(c3cccc(C)c3Cl)CC2)c1OC [Example 26, 1-(2-Chloro-3-methylphenyl)-4-(2,3-dimethoxybenzyl)-piperazine, monohydrochloride] | – | –
0.0086 µM | 1.46 µM | 2.77 µM | COc1cc(CN2CCN(c3cccc(C)c3)CC2)cc(OC)c1OC [Example 7, 1-m-Tolyl-4-(3,4,5-trimethoxybenzyl)piperazine, monohydrochloride] | – | –
– | – | – | CN1CCN(C2=Nc3cc(Cl)ccc3Nc3ccccc32)CC1 [clozapine] | tenfold higher affinity | lack of extrapyramidal side effects and tardive dyskinesia
0.0113 µM | 2.08 µM | 0.73 µM | COc1ccc(OC)c(CN2CCN(c3cccc(C)c3Cl)CC2)c1 [Example 28, 1-(2-Chloro-3-methylphenyl)-4-(2,5-dimethoxybenzyl)-piperazine, monohydrochloride] | – | –
0.0044 µM | 0.762 µM | 0.409 µM | COc1ccc(CN2CCN(c3cccc(C)c3Cl)CC2)c(OC)c1 [Example 27, 1-(2-Chloro-3-methylphenyl)-4-(2,4-dimethoxybenzyl)-piperazine, monohydrochloride] | – | –
0.0065 µM | 1.56 µM | 3.51 µM | COc1cc(CN2CCN(c3cc(Cl)ccc3C)CC2)cc(OC)c1OC [Example 21, 1-(5-Chloro-2-methylphenyl)-4-(3,4,5-trimethoxybenzyl)-piperazine, monohydrochloride] | – | –
0.0075 µM | 1.41 µM | 6.82 µM | COc1cc(CN2CCN(c3ccc(C)cc3)CC2)cc(OC)c1OC [Example 8, 1-p-Tolyl-4-(3,4,5-trimethoxybenzyl)piperazine, monohydrochloride] | – | –
0.005 µM | 2.34 µM | 1.21 µM | COc1ccc(CN2CCN(c3cccc(C)c3Cl)CC2)cc1OC [Example 29, 1-(2-Chloro-3-methylphenyl)-4-(3,4-dimethoxybenzyl)-piperazine, monohydrochloride] | – | –
0.0061 µM | 1.05 µM | 2.12 µM | COc1cc(CN2CCN(c3cccc(Cl)c3C)CC2)cc(OC)c1OC [Example 19, 1-(3-Chloro-2-methylphenyl)-4-(3,4,5-trimethoxybenzyl)-piperazine, monohydrochloride] | – | –
